Experimental data published in patent US10787444B2, “Compounds for the modulation of myc activity” (Syros Pharmaceuticals, Inc., priority 2015, dated 2020).
Like-named read-outs stand apart in the source and are kept apart here.

Columns and labels:
c-Myc/Max/Ebox DNA = target: T1, c-Myc/Max/Ebox DNA (Homo sapiens, UniProt P01106); test: c-Myc/Max/Ebox DNA AlphaScreen Assay; format: binding; conditions: calculated IC50 class
T1 construct: his6 (cleaved yes)
Outline: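 Compounds were preincubated with free c-Myc (20 nM), biotinylated single-Ebox DNA (10 nM) and Ni acceptor beads before his6-Max (5 nM) and streptavidin donor beads were added. Buffer was 50 mM HEPES pH 8.0, 150 mM NaCl, BSA, Tween20, glycogen and DTT, with DMSO ≤2%. After 2 h incubation, AlphaScreen signal was read at 680 nm excitation and 520–620 nm emission.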

[1] = test system: human small lung cancer cell line H2171; test: Cell Viability Assay (ATPlite); format: cell-based; conditions: read-out: H2171 Activity
Outline: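 H2171 cells were plated at 20,000 cells/mL and dosed immediately by pin transfer with a 10-point dose series in DMSO. After three days at 37° C, ATPlite luminescence served as the viability readout.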

[2] = Homo sapiens, NCI-H2171, 72 h, Table 3, compounds of FIG. 2, H2171 cells, three days, ATPlite, calculated IC50 class
[3] = Homo sapiens, NCI-H2171, 72 h, Table 2, compounds of FIG. 1, H2171 cells, three days, ATPlite, calculated IC50 class
[4] = Table 2, compounds of FIG. 1, H2171 cells, three days, ATPlite, calculated IC50 class

T1 sequence (P01106 whole entry): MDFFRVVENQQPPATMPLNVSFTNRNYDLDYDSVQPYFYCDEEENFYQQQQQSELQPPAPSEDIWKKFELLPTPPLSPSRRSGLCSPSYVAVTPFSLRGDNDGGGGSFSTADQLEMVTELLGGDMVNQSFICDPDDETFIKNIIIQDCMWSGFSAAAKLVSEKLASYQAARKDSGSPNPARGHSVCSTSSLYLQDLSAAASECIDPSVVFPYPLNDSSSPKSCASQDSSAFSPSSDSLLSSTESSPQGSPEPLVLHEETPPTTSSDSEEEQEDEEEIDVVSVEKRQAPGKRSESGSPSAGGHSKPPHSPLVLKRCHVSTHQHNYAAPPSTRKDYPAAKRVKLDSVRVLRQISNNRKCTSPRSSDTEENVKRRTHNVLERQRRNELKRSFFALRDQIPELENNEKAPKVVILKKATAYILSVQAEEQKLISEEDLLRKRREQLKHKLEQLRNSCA

| Compound | IC50 (c-Myc/Max/Ebox DNA; Table 2, compounds of FIG. 1) | IC50 [1, 3] | other results |
| --- | --- | --- | --- |
| CC(=O)Nc1sc2c(c1-c1nc3cc(N(C)C)ccc3s1)CCNC2 [Compound 230, N-(3-(5-(dimethylamino)benzo[d]thiazol-2-yl)-4,5,6,7-tetrahydrothieno[2,3-c]pyridin-2-yl)acetamide] |  |  | IC50 (c-Myc/Max/Ebox DNA; Table 3, compounds of FIG. 2): 1 to 10 µM; IC50 [1, 2]: > 10 µM |
| CC(=O)Nc1sc2c(c1-c1nc3ccccc3s1)CCC(NC1CCOCC1)C2 (stereo not drawn) [Compound 231, N-(3-(benzo[d]thiazol-2-yl)-6-((tetrahydro-2H-pyran-4-yl)amino)-4,5,6,7-tetrahydrobenzo[b]thiophen-2-yl)acetamide] |  |  | IC50 (c-Myc/Max/Ebox DNA; Table 3, compounds of FIG. 2): 1 to 10 µM; IC50 [1, 2]: < 0.3 µM |
| CC(=O)N(C)c1sc2c(c1-c1nc3ccccc3s1)CCNC2 [Compound 232, N-(3-(benzo[d]thiazol-2-yl)-4,5,6,7-tetrahydrothieno[2,3-c]pyridin-2-yl)-N-methylacetamide] |  |  | IC50 (c-Myc/Max/Ebox DNA; Table 3, compounds of FIG. 2): > 10 µM; IC50 [1, 2]: > 10 µM |
| CC(=O)Nc1sc2c(c1-c1nc3cc4c(cc3s1)OCO4)CCN(C(C)C)C2 [Compound 236, N-(3-([1,3]Dioxolo[4′,5′:4,5]benzo[1,2-d]thiazol-6-yl)-6-isopropyl-4,5,6,7-tetrahydrothieno[2,3-c]pyridin-2-yl)acetamide] |  |  | IC50 (c-Myc/Max/Ebox DNA; Table 3, compounds of FIG. 2): 0.3 to 1 µM; IC50 [1, 2]: 0.3 to 1 µM |
| CC(=O)Nc1sc2c(c1-c1nc3cc4c(cc3s1)OCO4)CCNC2 [Compound 237, N-(3-([1,3]Dioxolo[4′,5′:4,5]benzo[1,2-d]thiazol-6-yl)-4,5,6,7-tetrahydrothieno[2,3-c]pyridin-2-yl)acetamide] |  |  | IC50 (c-Myc/Max/Ebox DNA; Table 3, compounds of FIG. 2): 1 to 10 µM; IC50 [1, 2]: 0.3 to 1 µM |
| CCC(C)NCCC(=O)N(C)c1sc2c(c1-c1nc3ccccc3s1)CCNC2 (stereo not drawn) [Compound 301, N-(3-(benzo[d]thiazol-2-yl)-4,5,6,7-tetrahydrothieno[2,3-c]pyridin-2-yl)-3-(sec-butylamino)-N-methylpropanamide] | 1 to 10 µM | 1 to 10 µM |  |
| COCCN(CCOC)CCC(=O)Nc1sc2c(c1-c1nc3ccccc3s1)CCNC2 [Compound 309, N-(3-(benzo[d]thiazol-2-yl)-4,5,6,7-tetrahydrothieno[2,3-c]pyridin-2-yl)-3-(bis(2-methoxyethyl)amino)propanamide] | > 10 µM | < 0.3 µM |  |
| COCCNCCC(=O)Nc1sc2c(c1-c1nc3ccccc3s1)CC(C)NC2C (stereo not drawn) [Compound 315, N-(3-(Benzo[d]thiazol-2-yl)-5,7-dimethyl-4,5,6,7-tetrahydrothieno[2,3-c]pyridin-2-yl)-3-((2-methoxyethyl)amino)propanamide] | 0.3 to 1 µM |  | IC50 [1, 4]: < 0.3 µM |
| CCC(C)N(CCC(=O)Nc1sc2c(c1-c1nc3ccccc3s1)CCN(CCNC(=O)C(F)(F)F)C2)C(C)=O (stereo not drawn) [Compound 319, N-(3-(Benzo[d]thiazol-2-yl)-6-(2-(2,2,2-trifluoroacetamido)ethyl)-4,5,6,7-tetrahydrothieno[2,3-c]pyridin-2-yl)-3-(N-(sec-butyl)acetamido)propanamide] | > 10 µM | 0.3 to 1 µM |  |
| CC(C)NCCC(=O)Nc1sc2c(c1-c1nc3cc(C(=O)N4CCN(C)CC4)ccc3s1)CCNC2 [Compound 324, 3-(Isopropylamino)-N-(3-(5-(4-methylpiperazine-1-carbonyl)benzo[d]thiazol-2-yl)-4,5,6,7-tetrahydrothieno[2,3-c]pyridin-2-yl)propanamide] | 0.3 to 1 µM | 1 to 10 µM |  |
| CC(C)NCCC(=O)Nc1sc2c(c1-c1nc3cc(C(=O)Nc4ccccc4)ccc3s1)CCNC2 [Compound 505, 2-(2-(3-(Isopropylamino)propanamido)-4,5,6,7-tetrahydrothieno[2,3-c]pyridin-3-yl)-N-phenylbenzo[d]thiazole-5-carboxamide] | 1 to 10 µM | < 0.3 µM |  |
| COCCNCCC(=O)Nc1sc2c(c1-c1nc3ccccc3s1)CC(C)NC2C (stereo not drawn) [Compound 506, N-(3-(Benzo[d]thiazol-2-yl)-5,7-dimethyl-4,5,6,7-tetrahydrothieno[2,3-c]pyridin-2-yl)-3-((2-methoxyethyl)amino)propanamide] | 0.3 to 1 µM |  | IC50 [1, 4]: 1 to 10 µM |
| COCCNCCC(=O)Nc1sc2c(c1-c1nc3ccccc3s1)CC(C)NC2C (stereo not drawn) [Compound 507, N-(3-(Benzo[d]thiazol-2-yl)-5,7-dimethyl-4,5,6,7-tetrahydrothieno[2,3-c]pyridin-2-yl)-3-((2-methoxyethyl)amino)propanamide] | 0.3 to 1 µM |  | IC50 [1, 4]: < 0.3 µM |
| CC(C)NCCC(=O)Nc1sc2c(c1-c1nc3cc(C(=O)Nc4cccnc4)ccc3s1)CCNC2 [Compound 510, 2-(2-(3-(Isopropylamino)propanamido)-4,5,6,7-tetrahydrothieno[2,3-c]pyridin-3-yl)-N-(pyridin-3-yl)benzo[d]thiazole-5-carboxamide] | 0.3 to 1 µM | < 0.3 µM |  |
| COCCNCCC(=O)Nc1sc2c(c1-c1nc3cc(-c4ccncc4)ccc3s1)C[C@H](C)N[C@@H]2C [Compound 532, N-((5S,7R)-5,7-dimethyl-3-(5-(pyridin-4-yl)benzo[d]thiazol-2-yl)-4,5,6,7-tetrahydrothieno[2,3-c]pyridin-2-yl)-3-((2-methoxyethyl)amino)propanamide] | > 10 µM | 0.3 to 1 µM |  |
| COCCNCCC(=O)Nc1sc2c(c1-c1nc3cc(-c4cccnc4)ccc3s1)CC(C)NC2C (stereo not drawn) [Compound 533, N-(5,7-Dimethyl-3-(5-(pyridin-3-yl)benzo[d]thiazol-2-yl)-4,5,6,7-tetrahydrothieno[2,3-c]pyridin-2-yl)-3-((2-methoxyethyl)amino)propanamide] | 1 to 10 µM | 0.3 to 1 µM |  |
| CCCNCCC(=O)Nc1sc2c(c1-c1nc3ccccc3s1)CCN(C(C)C)C2 [Compound 539, N-(3-(Benzo[d]thiazol-2-yl)-6-isopropyl-4,5,6,7-tetrahydrothieno[2,3-c]pyridin-2-yl)-3-(propylamino)propanamide] | 0.3 to 1 µM |  | IC50 [1, 4]: 0.3 to 1 µM |
| CCNCCC(=O)Nc1sc2c(c1-c1nc3ccccc3s1)CCN(C(C)C)C2 [Compound 540, N-(3-(Benzo[d]thiazol-2-yl)-6-isopropyl-4,5,6,7-tetrahydrothieno[2,3-c]pyridin-2-yl)-3-(ethylamino)propanamide] | 0.3 to 1 µM |  | IC50 ([1]; Homo sapiens, NCI-H2171, 72 h): < 0.3 µM |
| CC(C)N1CCc2c(sc(NC(=O)CCN3CCC3)c2-c2nc3ccccc3s2)C1 [Compound 541, 3-(Azetidin-1-yl)-N-(3-(benzo[d]thiazol-2-yl)-6-isopropyl-4,5,6,7-tetrahydrothieno[2,3-c]pyridin-2-yl)propanamide] | 0.3 to 1 µM |  | IC50 ([1]; Homo sapiens, NCI-H2171, 72 h): < 0.3 µM |
| CC(C)CNCCC(=O)Nc1sc2c(c1-c1nc3ccccc3s1)CCN(C(C)C)C2 [Compound 552, N-(3-(Benzo[d]thiazol-2-yl)-6-isopropyl-4,5,6,7-tetrahydrothieno[2,3-c]pyridin-2-yl)-3-(isobutylamino)propanamide] | < 0.3 µM | < 0.3 µM |  |

Continued, in another order:

| IC50 (c-Myc/Max/Ebox DNA; Table 2, compounds of FIG. 1) | IC50 [1, 3] | Compound | other results |
| --- | --- | --- | --- |
| < 0.3 µM | < 0.3 µM | O=C(CCNCCO)Nc1sc2c(c1-c1nc3ccccc3s1)CCNC2 [Compound 310, N-(3-(Benzo[d]thiazol-2-yl)-4,5,6,7-tetrahydrothieno[2,3-c]pyridin-2-yl)-3-((2-hydroxyethyl)amino)propanamide] |  |
| < 0.3 µM | < 0.3 µM | COCCNCCC(=O)Nc1sc2c(c1-c1nc3cc(C)ccc3s1)CCNC2 [Compound 314, 3-((2-Methoxyethyl)amino)-N-(3-(5-methylbenzo[d]thiazol-2-yl)-4,5,6,7-tetrahydrothieno[2,3-c]pyridin-2-yl)propanamide] |  |
| 0.3 to 1 µM | < 0.3 µM | COCCNCCC(=O)Nc1sc2c(c1-c1nc3ccc(F)cc3s1)CCNC2 [Compound 318, N-(3-(6-Fluorobenzo[d]thiazol-2-yl)-4,5,6,7-tetrahydrothieno[2,3-c]pyridin-2-yl)-3-((2-methoxyethyl)amino)propanamide] |  |
| 0.3 to 1 µM | < 0.3 µM | CC(C)NCCC(=O)Nc1sc2c(c1-c1nc3cc(C(=O)O)ccc3s1)CCNC2 [Compound 320, 2-(2-(3-(Isopropylamino)propanamido)-4,5,6,7-tetrahydrothieno[2,3-c]pyridin-3-yl)benzo[d]thiazole-5-carboxylic acid] |  |
| 0.3 to 1 µM | < 0.3 µM | C=Cc1ccc2sc(-c3c(NC(=O)CCNC(C)C)sc4c3CCNC4)nc2c1 [Compound 321, 3-(Isopropylamino)-N-(3-(5-vinylbenzo[d]thiazol-2-yl)-4,5,6,7-tetrahydrothieno[2,3-c]pyridin-2-yl)propanamide] |  |
| 0.3 to 1 µM | < 0.3 µM | CC(C)NCCC(=O)Nc1sc2c(c1-c1nc3cc(C(=O)N(C)C)ccc3s1)CCNC2 [Compound 322, 2-(2-(3-(Isopropylamino)propanamido)-4,5,6,7-tetrahydrothieno[2,3-c]pyridin-3-yl)-N,N-dimethylbenzo[d]thiazole-5-carboxamide] |  |
| < 0.3 µM | < 0.3 µM | COCCNC(=O)c1ccc2sc(-c3c(NC(=O)CCNC(C)C)sc4c3CCNC4)nc2c1 [Compound 323, 2-(2-(3-(Isopropylamino)propanamido)-4,5,6,7-tetrahydrothieno[2,3-c]pyridin-3-yl)-N-(2-methoxyethyl)benzo[d]thiazole-5-carboxamide] |  |
